Measured values: patent US9175024B2, “Platinum compound having amino or alkylamino-containing succinic acid derivatives as leaving group, preparation method thereof, and use thereof” (BEIJING FSWELCOME TECHNOLOGY DEVELOPMENT CO., LTD., priority 2011, dated 2015)

Columns and labels:
normal mice = assay: Acute toxic effect of platinum complex on normal mice (LD50, single intravenous administration); type: in vivo, Kunming mice; conditions: single intravenous administration in 5% glucose solution, 14 days observation, Bliss method
Method: (§1) Kunming mice at 4˜6 weeks old and at the weight of 18˜22 g were taken, 50% male and 50% female. Embodiment platinum compound was dissolved with 5% glucose solution. […] Mortality and toxicity were observed after administration, totally observing 14 days, LD50 value was calculated with Bliss method according to mortality.

Lung cancer H292 = assay: MTT cytotoxicity, lung cancer H292; type: cell-based; conditions: n = 6, Lung cancer H292
Method: (§2) Several kinds of tumor cells in exponential growth phase were prepared into single cell suspension, inoculated on 96 pore plat at the density of 4×10^4/hole, cultivated for 24 hours to enable to adhere to wall with 1640 culture medium containing 10% fetal calf serum (complete medium) at 37° C.; the final culture volume was 100 μl. Cell morphology was observed after culture for 24 hours.

[1] = system: Pulmonary epithelial cell BEAS-2B; assay: MTT cytotoxicity, pulmonary epithelial cell BEAS-2B; type: cell-based; conditions: n = 6, Pulmonary epithelial cell BEAS-2B
Method: as §2

Lewis lung cancer = assay: MTT cytotoxicity, Lewis lung cancer; type: cell-based; conditions: n = 6, Lewis lung cancer
Method: as §2

Colon cancer SW480 = assay: MTT cytotoxicity, colon cancer SW480; type: cell-based; conditions: n = 6, Colon cancer SW480
Method: as §2

breast cancer MCF-7 = assay: In vivo antitumor activity, breast cancer MCF-7 in nude mice; conditions: MCF-7 in female nude mice, 10 mg (platinum)/kg, once a week, 4 times, tumor weighed 4 weeks later
[2] = Solubility in water of the embodiment and contrast compounds
Testis cell ST = assay: MTT cytotoxicity, testis cell ST; type: cell-based; conditions: n = 6, Testis cell ST
Method: as §2

Gastric cancer MGC803 = assay: MTT cytotoxicity, gastric cancer MGC803; type: cell-based; conditions: n = 6, Gastric cancer MGC803
Method: as §2

Esophagus cancer ECA109 = assay: MTT cytotoxicity, esophagus cancer ECA109; type: cell-based; conditions: n = 6, Esophagus cancer ECA109
Method: as §2

[3] = Acute toxic effect of platinum complex on normal mice (LD50, single intravenous administration); type: in vivo, Kunming mice; conditions: both sexes, Kunming, mouse, in vivo; single intravenous administration in 5% glucose solution, 14 days observation, Bliss method
Method: as §1

physchem = conditions: water

| SMILES | LD50 value (normal mice) [mmol/kg] | IC50 (Lung cancer H292) [µM] | IC50 [1] [µM] | IC50 (Lewis lung cancer) [µM] | IC50 (Colon cancer SW480) [µM] | Tumor inhibition rate (x ± SD) (breast cancer MCF-7) | solubility [2] [mg/mL] | IC50 (Testis cell ST) [µM] | IC50 (Gastric cancer MGC803) [µM] | IC50 (Esophagus cancer ECA109) [µM] | LD50 at 14 days [3] [µmol/kg] | solubility (physchem) [mg/mL] |
| --- | --- | --- | --- | --- | --- | --- | --- | --- | --- | --- | --- | --- |
| CCN(CC)CCCC(CC(=O)[O-])C(=O)[O-].NC1CCCC1N.[Pt+2] (racemic) [Compound 15, [2-(3-diethylamino propyl)-succinato].[Cis-(1,2-trans-cyclopentyldiamine)]platinum (II)] | 0.528 | 145 | 15 | 51 | 32 | 73.5 ± 12.31 9% | 151 |  |  |  |  |  |
| CCN(CC)CCCC(CC(=O)[O-])C(=O)[O-].NC1CC1N.[Pt+2] (racemic) [Compound 17, [2-(3-diethylamino propyl)-succinato].[Cis-(1,2-trans-cyclopropyldiamine)]platinum (II)] | 0.581 | 31 |  |  |  | 82.5 ± 11.34 9% | 195 | 51 | 13 | 72 |  |  |
| CN(C)CCC(CC(=O)[O-])C(=O)[O-].NCC1CCC1CN.[Pt+2] (racemic) [Compound 23, [2-(2-dimethylaminoethyl)-succinato].[Cis-1,4-(trans-2,3-cyclobutyl)-butyldiamine]platinum (II)] | 0.512 | 51 |  |  |  | 85.1 ± 10.37 9% | 165 | 18 | 146 | 102 |  |  |
| CCN(CC)CCC(CC(=O)[O-])C(=O)[O-].NCC1CCC1CN.[Pt+2] (racemic) [Compound 24, [2-(2-diethylamino ethyl)-succinato].[Cis-1,4-(trans-2,3-cyclobutyl)-butanediamine]platinum (II)] | 0.525 | 25 |  |  |  | 69.3 ± 10.13 9% | 176 | 12 | 119 | 71 |  |  |
| CNCCC1CC(=O)[O][Pt]([NH2])([NH2])[O]C1=O (stereo not drawn) [Compound 1, [2-(2-methylaminoethyl)-succinato].[Cis-diamine]platinum (II)] |  |  |  |  |  |  |  |  |  |  | 523 | 208 |
| CN(C)CCC1CC(=O)[O][Pt]([NH2])([NH2])[O]C1=O (stereo not drawn) [Compound 2, [2-(2-dimethylaminoethyl)-succinato].[Cis-diamine]platinum (II)] |  |  |  |  |  |  |  |  |  |  | 511 | 176 |
| CN(C)CCCC1CC(=O)[O][Pt]([NH2])([NH2])[O]C1=O (stereo not drawn) [Compound 3, [2-(3-dimethylamino propyl)-succinato].[Cis-diamine]platinum (II)] |  |  |  |  |  |  |  |  |  |  | 521 | 150 |
| NCCCC1CC(=O)[O][Pt]([NH2])([NH2])[O]C1=O (stereo not drawn) [Compound 4, [2-(3-amino propyl)-succinato].[Cis-diamine]platinum (II)] |  |  |  |  |  |  |  |  |  |  | 556 | 155 |
| CCN(CC)CCC1CC(=O)[O][Pt]([NH2])([NH2])[O]C1=O (stereo not drawn) [Compound 5, [2-(2-diethylaminoethyl)-succinato].[Cis-diamine]platinum (II)] |  |  |  |  |  |  |  |  |  |  | 652 | 166 |
| CCCN(CCC)CCCC1CC(=O)[O][Pt]([NH2])([NH2])[O]C1=O (stereo not drawn) [Compound 6, [2-(3-di-n-propylamino propyl)-succinato].[Cis-diamine]platinum (II)] |  |  |  |  |  |  |  |  |  |  | 449 | 130 |
| [NH2][Pt]1([NH2])[O]C(=O)CC(CCCN2CCCCC2)C(=O)[O]1 (stereo not drawn) [Compound 7, [2-(3-(1-piperidyl)-propyl)-succinato].[Cis-diamine]platinum (II)] |  |  |  |  |  |  |  |  |  |  | 623 | 139 |
| [NH2][Pt]1([NH2])[O]C(=O)CC(CCCN2CCCC2)C(=O)[O]1 (stereo not drawn) [Compound 8, [2-(3-(1-pyrrolidyl)-propyl)-succinato].[Cis-diamine]platinum (II)] |  |  |  |  |  |  |  |  |  |  | 605 | 135 |
| CCCN(CCC)CCCC(CC(=O)[O-])C(=O)[O-].N[C@@H]1CCCC[C@H]1N.[Pt+2] (stereo not drawn) [Compound 14, [2-(3-di-n-propylamino propyl)-succinato].[Cis-(1,2-trans-cyclohexyldiamine)]platinum (II)] | 0.467 | 9 | 8 | 37 | 51 | 70.1 ± 11.55 9% |  |  |  |  |  |  |
| CCN(CC)CCCC1CC(=O)[O][Pt]2([NH]C3CCC3[NH]2)[O]C1=O (stereo not drawn) [Compound 16, [2-(3-diethylamino propyl)-succinato].[Cis-(1,2-trans-cyclobutyldiamine)]platinum (II)] | 0.623 | 8 | 45 | 33 | 84 | 70.4 ± 10.81 9% | 186 |  |  |  |  |  |
| CN(C)CCC(CC(=O)[O-])C(=O)[O-].NCCN.[Pt+2] (stereo not drawn) [Compound 18, [2-(2-dimethylaminoethyl)-succinato].[Cis-1,2-ethyldiamine]platinum (II)] | 0.532 | 31 |  |  |  | 71.8 ± 12.01 9% | 226 | 10 | 121 | 62 |  |  |
| CCN(CC)CCC1CC(=O)[O][Pt]2([NH]CCC[NH]2)[O]C1=O (stereo not drawn) [Compound 19, [2-(2-diethylaminoethyl)-succinato].[Cis-1,3-propyldiamine]platinum (II)] | 0.454 | 102 |  |  |  | 65.3 ± 9.15 9% | 200 | 12 | 117 | 8 |  |  |
| CCCN(CCC)CCCC(CC(=O)[O-])C(=O)[O-].NCCCCN.[Pt+2] (stereo not drawn) [Compound 20, [2-(3-di-n-propylaminopropyl)-succinato].[Cis-1,4-butyldiamine]platinum (II)] | 0.513 | 59 |  |  |  | 66.7 ± 10.61 9% | 162 | 22 | 66 | 13 |  |  |
| CCN(CC)CCC1CC(=O)[O][Pt]2([NH]C(CO)C(CO)[NH]2)[O]C1=O (stereo not drawn) [Compound 21, [2-(2-diethyl amino ethyl)-succinato].[Cis-1,2-(1,2-dihydroxymethyl)-ethyldiamine]platinum (II)] | 0.681 | 21 |  |  |  | 68.3 ± 10.88 9% | 176 | 143 | 109 | 84 |  |  |
| CN(C)CCC1CC(=O)[O][Pt]2([NH]CC(CO)(CO)C[NH]2)[O]C1=O (stereo not drawn) [Compound 22, [2-(2-dimethyl amino ethyl)-succinato].[Cis-1,3-(2,2-dihydroxytmethyl)-propyldiamine]platinum (II)] | 0.452 | 65 |  |  |  | 70.8 ± 10.12 9% | 205 | 52 | 15 | 17 |  |  |
| CCN(CC)CCC(CC(=O)[O-])C(=O)[O-].NC1CCC(N)CC1.[Pt+2] (stereo not drawn) [Compound 25, [2-(2-diethylaminoethyl)-succinato].[Cis-1,4-cyclohexyldiamine]platinum (II)] | 0.459 | 106 |  |  |  | 66.9 ± 9.49 9% | 125 | 102 | 96 | 116 |  |  |
| CCN(CC)CCC1CC(=O)[O][Pt]2([NH]CC3(CCOCC3)C[NH]2)[O]C1=O (stereo not drawn) [Compound 26, [2-(2-diethylaminoethyl)-succinato].[Cis-1,3-(2,2-(4-oxacyclohexyl))-propyldiamine]platinum (II)] | 0.526 | 47 |  |  |  | 76.4 ± 14.85 9% | 165 | 44 | 35 | 32 |  |  |
| CCN(CC)CCCCC(CC(=O)[O-])C(=O)[O-].NCCN.[Pt+2] (stereo not drawn) [Compound 28, [2-(4-diethylamino butyl)-succinato].[Cis-1,2-ethylenediamine]platinum (II) toluenesulfonate] | 0.612 | 99 |  |  |  | 76.4 ± 9.78 9% | 187 | 138 | 162 | 56 |  |  |
| CCN(CC)CCCCC1CC(=O)[O][Pt]2([NH]C3CCCCC3[NH]2)[O]C1=O.O=P(O)(O)O (stereo not drawn) [Compound 29, [2-(4-diethylamino butyl)-succinato].[Cis-(1,2-trans-cyclohexyldiamine)]platinum (II) phosphate] | 0.698 | 3 |  |  |  | 82.2 ± 10.82 9% |  | 5 | 7 | 6 |  |  |
